Test [1] is described as follows: Inhibitory activity against porcine pancreatic elastase (PPE).
Test [2] in a line: Inhibitory activity against porcine pancreatic trypsin (TRP).
Test [3] in a line: Inhibitory activity against bovine pancreatic alpha-chymotrypsin (alpha-CT).
A short description of test [4]: Inhibitory activity against porcine pancreatic trypsin (TRP). This is another data set of the same source.

SMILES strings stand for the structures. pIC50: −log10 of the molar value.

Turning to `CCCCC(NC(=O)c1ccccc1)C(C)(C)C(=O)OC(=O)C(C)(C)C(CCCC)NC(=O)c1ccccc1` (centres undefined) [1,1-dimethyl-2-phenylcarboxamidoheptanoic anhydride], the results for the pIC50 in test [1], in test [2] and in test [3] were 7.47, 5.54 and 8.28, respectively.

As to `CCCC(NC(=O)c1ccccc1)C(C)(C)C(=O)OC(=O)C(C)(C)C(CCC)NC(=O)c1ccccc1` (centres undefined) [1,1-dimethyl-2-phenylcarboxamidohexanoic anhydride], the results for the pIC50 in test [2] and in test [3] were 5.06 and 7.31, respectively.

On to `CCCCCCC(NC(=O)c1ccccc1)C(C)(C)C(=O)OC(=O)C(C)(C)C(CCCCCC)NC(=O)c1ccccc1` (centres undefined) [1,1-dimethyl-2-phenylcarboxamidononanoic anhydride], for which the pIC50 (commonly the negative decadic logarithm of the IC50, by convention in mol/L) is 6.74 in test [1], 5.48 in test [2] and 7.36 in test [3].

As for `CCCCCC(NC(=O)c1ccccc1)C(C)(C)C(=O)OC(=O)C(C)(C)C(CCCCC)NC(=O)c1ccccc1` (centres undefined) [1,1-dimethyl-2-phenylcarboxamidooctanoic anhydride], the pIC50 in test [1] is 7.21; in test [2] it was 5.41; in test [3], 7.51.

For `CCC(NC(=O)c1ccccc1)C(C)(C)C(=O)OC(=O)C(C)(C)C(CC)NC(=O)c1ccccc1` (centres undefined) [1,1-dimethyl-2-phenylcarboxamidopentanoic anhydride], the pIC50 was 6.68 in test [1], 5.66 in test [2] and 7.14 in test [3].

Turning to `CC(C)(CNC(=O)c1ccccc1)C(=O)OC(=O)C(C)(C)CNC(=O)c1ccccc1` [1,1-dimethyl-2-phenylcarboxamidopropanoic anhydride], the values for the pIC50 in test [1], in test [2] and in test [3] were 5.59, 6.00 and 6.85, respectively.

In the case of `CCCCCC(NC(=O)CCC)C(C)(C)C(=O)OC(=O)C(C)(C)C(CCCCC)NC(=O)CCC` (centres undefined) [1,1-dimethyl-2-propylcarboxamidooctanoic anhydride], the pIC50 in test [1] was 7.26; in test [2], 4.74; in test [3], 6.09.

On to `CC(C)(C(=O)OC(=O)C(C)(C)C(CCc1ccccc1)NC(=O)c1ccccc1)C(CCc1ccccc1)NC(=O)c1ccccc1` (centres undefined) [1,1-dimethyl-4-phenyl-2-phenylcarboxamidopentanoic anhydride], for which the pIC50 in test [1] was 7.19; in test [2] it was 5.57; in test [3], 7.74.

For `CCCC(=O)NC(CCc1ccccc1)C(C)(C)C(=O)OC(=O)C(C)(C)C(CCc1ccccc1)NC(=O)CCC` (centres undefined) [1,1-dimethyl-4-phenyl-2-propylcarboxamidopentanoic anhydride], the pIC50 in test [2] is 5.92.

Turning to `CC(C)(C(=O)OC(=O)C(C)(C)C(NC(=O)c1ccc(C#N)cc1)c1ccccc1Cl)C(NC(=O)c1ccc(C#N)cc1)c1ccccc1Cl` (centres undefined) [2-(2-chlorophenyl)-2-(4-cyanophenylcarboxamido)-1,1-dimethylpropanoic anhydride], the negative-log IC50 (pIC50) in test [1] is 5.96; in test [4], 5.09; in test [3] it was 6.60.

Regarding `Cc1ccccc1C(NC(=O)c1ccc(C#N)cc1)C(C)(C)C(=O)OC(=O)C(C)(C)C(NC(=O)c1ccc(C#N)cc1)c1ccccc1C` (centres undefined) [2-(4-cyanophenylcarboxamido)-1,1-dimethyl-2-(2-methylphenyl)propanoic anhydride], the pIC50 in test [1] is 5.68; in test [4] it was 4.74; in test [3] it was 6.72.

For `CC(C)(C(=O)OC(=O)C(C)(C)C(NC(=O)c1ccc(C#N)cc1)c1ccccc1)C(NC(=O)c1ccc(C#N)cc1)c1ccccc1` (centres undefined) [2-(4-cyanophenylcarboxamido)-1,1-dimethyl-2-phenylpropanoic anhydride], the pIC50 in test [1] is 6.68; in test [4], 5.74; in test [3], 7.82.

As for `CC(C)(C(=O)OC(=O)C(C)(C)C(NC(=O)c1ccc(C#N)cc1)C1CC=CCC1)C(NC(=O)c1ccc(C#N)cc1)C1CC=CCC1` (centres undefined) [2-(4-cyanophenylcarboxamido)-2-cyclohex-3-enyl-1,1-dimethylpropanoic anhydride], the pIC50 was 6.74 in test [1], 5.80 in test [2] and 6.66 in test [3].

On to `CC(C)(C(=O)OC(=O)C(C)(C)C(CCc1ccccc1)NC(=O)c1ccc(C#N)cc1)C(CCc1ccccc1)NC(=O)c1ccc(C#N)cc1` (centres undefined) [[2,2-dimethyl-3-(N-(4-cyanobenzoyl)aminoi)-5-phenylpentanoic anhydride]], for which the figures for the pIC50 in test [1], in test [4] and in test [3] were 7.44, 6.52 and 8.68, respectively.
